Test [1] is described as follows: microbe, parasite or virus in culture. To be noted: Mycobacterium tuberculosis, 72 h, read-out: pIC50 (converted).
Test [2] is described as follows: microbe, parasite or virus in culture. To be noted: Mycobacterium tuberculosis, 96 h, read-out: pIC50 (converted).

As for `COc1cccc(N2CCC(N)CC2)c1`, the figures for the IC50 in test [1] and in test [2] were 426 µM and 213 µM, respectively.

As to `Cc1nc(CN2CCCC(CCc3ccccc3C(F)(F)F)C2)no1` (centres undefined), the IC50 in test [1] is 28.7 µM; in test [2], 26.2 µM.

As to `O=C(Cc1cccnc1)NCCNc1cccc(Br)c1`, the IC50 in test [1] was 143 µM; in test [2], greater than 501 µM.

Regarding `NCC(O)c1ccc(Cl)cc1Cl` (centres undefined), the figures for the IC50 in test [1] and in test [2] were 304 µM and greater than 501 µM, respectively.

Take `COc1ccc(OC)c(CNc2nc(C)nn2C)c1`: the IC50 in test [1] is 199 µM; in test [2] it was greater than 501 µM.

Take `CN(C)S(=O)(=O)N(CCO)Cc1ccc(Cl)c(Cl)c1`: the IC50 in test [1] was 216 µM; in test [2], 308 µM.

On to `CCn1nc(C)cc1C(=O)Nc1ccnc(N(C)C)n1`, for which the IC50 was 96.2 µM in test [1] and greater than 501 µM in test [2].

Regarding `COC(=O)NCC(=O)N(C)c1ccc2ccccc2c1`, the IC50 in test [1] was 129 µM; in test [2], greater than 501 µM.

`Cc1cc(C2CCC2)nc(N2CCNC(=O)C2)n1`: the IC50 in test [1] is 119 µM; in test [2], 44.3 µM.

As to `O=S1(=O)CCCN(Cc2ccc(Br)c(F)c2)CC1`, the IC50 in test [1] is 386 µM; in test [2], 242 µM.

Take `Cc1cc(NCCCC(F)(F)F)n2nc(C)cc2n1`: the figures for the IC50 in test [1] and in test [2] were 15.6 µM and 10.2 µM, respectively.

`COCCOc1ccc(NC(=O)OCC(F)(F)F)cn1`: the IC50 in test [1] was 208 µM; in test [2], 110 µM.

For the compound `CCC1(CO)CCCN(CCn2cc(Cl)cn2)C1` (centres undefined), the figures for the IC50 in test [1] and in test [2] were 138 µM and 144 µM, respectively.

As to `CCC1Oc2c(Cl)cccc2NC1=O` (centres undefined), the IC50 in test [1] and in test [2] was greater than 501 µM in each case.

On to `COc1ccc(F)c(CN2CCCC3(CCN(C4CCOCC4)C3)C2)c1` (centres undefined), for which the IC50 is 16.7 µM in test [1] and 25.1 µM in test [2].

For `CCc1ccccc1OC1CN(C(=O)c2ccnc(OC)c2)C1`, the results for the IC50 in test [1] and in test [2] were 21.3 µM and 43.4 µM, respectively.

With `COc1ccc(C(=O)NC2=NCCS2)c(O)c1`, the IC50 is 456 µM in test [1] and 185 µM in test [2].

`COc1ccc(CN2CCCNCC2)cc1`: the IC50 was 258 µM in test [1] and 163 µM in test [2].

With `Cn1cncc1CN1CCCC1c1cncc(Oc2ccc(F)cc2)n1` (centres undefined), the IC50 was 19.4 µM in test [1] and greater than 50.1 µM in test [2].

As for `CCOc1cc(NCc2ncc(C)o2)ncn1`, the IC50 in test [1] was 153 µM; in test [2] it was greater than 501 µM.

In the case of `N[C@@H](CO)C(=O)N1CCC(Cc2ccc(F)cc2)CC1`, the IC50 in test [1] was 195 µM; in test [2] it was greater than 501 µM.

Take `COCCN1CCN(C(C)C(=O)Nc2ccnn2C(C)C)CC1` (centres undefined): the IC50 in test [1] and in test [2] was greater than 50.1 µM each time.

Consider `CC(=O)NCC(=O)N1C[C@@H]2CC[C@H](Oc3ccccc3Cl)[C@@H]2C1`, for which the IC50 in test [1] and in test [2] was greater than 50.1 µM in each case.

For the compound `O=C(CCn1cc(Br)cn1)NCc1cccs1`, the IC50 is 102 µM in test [1] and 109 µM in test [2].

In the case of `Cc1cc(C(=O)N2CCN(Cc3ccsc3)CC2)[nH]n1`, the IC50 in test [1] was 90.5 µM; in test [2], 156 µM.

As to `Cn1cc(Br)cc1C(=O)NCCCNc1ncccn1`, the IC50 was 292 µM in test [1] and greater than 501 µM in test [2].

As to `OC(CN1CCCSCC1)c1ccc(F)cc1` (centres undefined), the IC50 in test [1] and in test [2] was greater than 501 µM each time.

On to `Cc1cccnc1CN(C)C(C(=O)O)c1ccc(-n2cccn2)cc1` (centres undefined), for which the results for the IC50 in test [1] and in test [2] were 27 µM and 20.1 µM, respectively.

On to `Cc1ccc(C(N)CN2CCOCC2)cc1` (centres undefined), for which the IC50 was 448 µM in test [1] and greater than 501 µM in test [2].

On to `CCCc1noc(C(C)Nc2cccc(C(N)=O)c2)n1` (centres undefined), for which the IC50 in test [1] was 56.4 µM; in test [2], 156 µM.

Turning to `Cc1ccc(CN2CCOC3(CCN(C(=O)C4CC=CC4)CC3)C2)cc1`, the figures for the IC50 in test [1] and in test [2] were 30.5 µM and 40.9 µM, respectively.

For `COc1cc(CCN)ccc1C`, the IC50 in test [1] is 303 µM; in test [2], 277 µM.

For `Cc1ccc2oc(N3CCNCC3)nc2c1`, the values for the IC50 in test [1] and in test [2] were 190 µM and greater than 501 µM, respectively.

As for `O=C(NCCN1CCCC1)c1ccc2ccccc2n1`, the IC50 in test [1] was 146 µM; in test [2], 249 µM.

Turning to `Cc1cc(CN2CCc3nc(C(C)C)nc(O)c3CC2)c(C)s1`, the IC50 in test [1] and in test [2] was greater than 50.1 µM throughout.

Consider `COc1ccc(CNc2ccncc2F)cc1C#N`, for which the IC50 in test [1] and in test [2] was greater than 501 µM throughout.

Turning to `CC(C)Oc1ccc(C(=O)NCc2ccnc(N3CCCC3)c2)cn1`, the IC50 in test [1] was 36.9 µM; in test [2], 45.1 µM.

Consider `CN(CCc1nc(-c2cccc(Cl)c2)no1)CCn1cccn1`, for which the IC50 in test [1] was 4.75 µM; in test [2] it was 41.6 µM.

As for `CC(=O)N1CCC(C(=O)c2ccc(C)cc2)CC1`, the IC50 in test [1] is 100 µM; in test [2] it was greater than 501 µM.

For `Cc1cc(S(=O)(=O)NC(CN)C2CC2)c(F)cc1F` (centres undefined), the results for the IC50 in test [1] and in test [2] were greater than 501 µM and 18.9 µM, respectively.

Regarding `CC(C)C(C)N(C)Cc1nnc(-c2ccco2)o1` (centres undefined), the figures for the IC50 in test [1] and in test [2] were 1.38 µM and greater than 50.1 µM, respectively.

With `Cc1ccc2c(c1)nc1n2[C@@H](CNC(=O)c2cccnc2)COC1`, the IC50 in test [1] and in test [2] was greater than 50.1 µM each time.

In the case of `COc1ccc(CCCC(=O)N2CCC(CN)C2)cc1` (centres undefined), the IC50 in test [1] was 230 µM; in test [2], greater than 501 µM.

On to `CCCC(C)N(C)Cc1nnc(-c2ccco2)o1` (centres undefined), for which the IC50 is 5.32 µM in test [1] and 29.5 µM in test [2].

For the compound `COCC(C)Nc1cccc(F)c1C#N` (centres undefined), the IC50 in test [1] and in test [2] was greater than 501 µM in each case.

As for `CC(C)CC1CCN(S(N)(=O)=O)C1` (centres undefined), the IC50 in test [1] and in test [2] was greater than 501 µM each time.

For the compound `Cc1cc(NC(=O)CN(C)Cc2ccccc2)no1`, the IC50 in test [1] was 266 µM; in test [2], 243 µM.

For the compound `CCN(CC1CCOC1)C(=O)c1cc(I)c[nH]1` (centres undefined), the IC50 in test [1] is 212 µM; in test [2], greater than 501 µM.

With `CN(C)c1ccc(Br)c(S(=O)(=O)NC2CCNC2)c1` (centres undefined), the values for the IC50 in test [1] and in test [2] were 232 µM and 263 µM, respectively.

`COCCC(C)NC(=O)Nc1ccc(N2CCOC2=O)c(OC)c1` (centres undefined): the IC50 in test [1] and in test [2] was greater than 50.1 µM in each case.

On to `CN(Cc1ccc(Cl)s1)C(=O)Cn1nc(-c2ccc(F)cc2)oc1=O`, for which the IC50 in test [1] and in test [2] was greater than 50.1 µM each time.

As for `CCCS(=O)(=O)N(C)Cc1ccc(OCC)cn1`, the values for the IC50 in test [1] and in test [2] were 148 µM and 280 µM, respectively.

As for `O=C(NCC(=O)N1CCCC1)c1csc2ccccc12`, the IC50 was 43.9 µM in test [1] and 71.2 µM in test [2].

For the compound `CCc1ncc(-c2cn(CCSc3ncn[nH]3)nn2)cn1`, the IC50 in test [1] and in test [2] was greater than 50.1 µM each time.

Consider `CC(C)(C)c1n[nH]cc1CNCC1CCN(C2CC2)C1` (centres undefined), for which the IC50 in test [1] is 28.5 µM; in test [2], 27.6 µM.

Turning to `CN(CCOc1ccc(Cl)cc1)S(C)(=O)=O`, the figures for the IC50 in test [1] and in test [2] were 142 µM and 178 µM, respectively.

With `Cc1ccc(-n2nnnc2NC2CC2)cc1`, the IC50 in test [1] is 263 µM; in test [2], greater than 501 µM.

For `CN(C)S(=O)(=O)N1CCCC1c1ccsc1` (centres undefined), the IC50 in test [1] is 277 µM; in test [2], greater than 501 µM.

For `CCc1c(C)n(CCC#N)c2nc3ccccc3n2c1=O`, the IC50 in test [1] and in test [2] was greater than 50.1 µM throughout.

On to `O=C(NCC1CC1)c1cccc2nn[nH]c12`, for which the IC50 was 233 µM in test [1] and 256 µM in test [2].

For the compound `CN1CCCN(C(=O)c2cc3c(s2)CCCC3)CC1`, the IC50 in test [1] is 211 µM; in test [2] it was greater than 501 µM.

On to `COc1cccc(CS(=O)(=O)Nc2ccc(C)nc2)c1`, for which the figures for the IC50 in test [1] and in test [2] were 307 µM and greater than 501 µM, respectively.

Consider `CC(C)N(Cc1ccccn1)C(=O)c1cc(Cl)c[nH]1`, for which the IC50 in test [1] and in test [2] was greater than 501 µM throughout.

With `COc1cc(C(=O)NC[C@@H](O)c2ccc(C)cc2)on1`, the IC50 in test [1] was 488 µM; in test [2], greater than 501 µM.

For the compound `Cc1nc(Nc2ncccn2)cc(C2CN(C(=O)c3cccnc3)C2)n1`, the IC50 in test [1] and in test [2] was greater than 50.1 µM each time.

With `CC(C)CCOCCSc1nnnn1C`, the figures for the IC50 in test [1] and in test [2] were 155 µM and 82.3 µM, respectively.

On to `COc1ccc(S(=O)(=O)N2CC(NCC3CC3)C2)cc1`, for which the figures for the IC50 in test [1] and in test [2] were 209 µM and greater than 501 µM, respectively.

As for `CNC(=O)NC(=O)C(C)Nc1cccc(C)c1` (centres undefined), the results for the IC50 in test [1] and in test [2] were 201 µM and 190 µM, respectively.

On to `COc1cccc(S(=O)(=O)CCN(C)CCO)c1`, for which the values for the IC50 in test [1] and in test [2] were 109 µM and 352 µM, respectively.

`CCc1nc(C2CCCN2C(=O)CCCOc2cccc(F)c2)no1` (centres undefined): the IC50 in test [1] and in test [2] was greater than 50.1 µM each time.

On to `OCCCn1nnc(-c2ccccc2)n1`, for which the IC50 is 158 µM in test [1] and 120 µM in test [2].

With `CCc1ccccc1NC(=O)NCc1nnc(SC)n1C`, the IC50 in test [1] and in test [2] was greater than 50.1 µM in each case.

On to `c1ccc(C2=NN=C(NC3CC3)SC2)cc1`, for which the IC50 in test [1] was 230 µM; in test [2] it was 140 µM.

In the case of `O=C(c1ccno1)N1CCOC[C@H](Oc2ccc(C(F)(F)F)cc2)C1`, the IC50 in test [1] and in test [2] was greater than 50.1 µM each time.

Turning to `O=C(NCc1ccc2c(c1)OCO2)Nc1nccs1`, the IC50 in test [1] and in test [2] was greater than 501 µM throughout.

In the case of `CSc1ccc2c(c1)CCN(C(=O)C1CCNC1)C2` (centres undefined), the values for the IC50 in test [1] and in test [2] were 168 µM and greater than 501 µM, respectively.

Turning to `CCOCCC(=O)N(C)Cc1cc(C(C)C)no1`, the IC50 in test [1] is 169 µM; in test [2], 372 µM.

`CCOc1ccccc1NC(=O)CSc1c[nH]nn1`: the values for the IC50 in test [1] and in test [2] were greater than 501 µM and 195 µM, respectively.

In the case of `NCc1nc(C(F)F)no1`, the IC50 in test [1] is 289 µM; in test [2] it was greater than 501 µM.

Regarding `CCS(=O)(=O)N1CCCCC1c1nc(C(C)C)no1` (centres undefined), the IC50 in test [1] and in test [2] was greater than 50.1 µM throughout.

As to `N[C@H]1CCCN(S(=O)(=O)c2ccc(C(=O)NCC(F)F)cc2)C1`, the IC50 in test [1] and in test [2] was greater than 50.1 µM throughout.

Turning to `CCc1nnc2n1CCN(C(C(=O)NC1CC1)c1ccccc1)C2` (centres undefined), the IC50 in test [1] and in test [2] was greater than 50.1 µM in each case.
